Values of other authors, collected in patent US12150969B2, “Synthetically enveloped virus” (priority 2016, dated 2024).

Columns and labels:
[1] = tested on: Ras
[2] = tested on: Ras-dependent tumor growth; conditions: established cancer models

## CC(C)=CCC/C(C)=C/CC/C(C)=C/CSc1ccccc1C(=O)O [FTS, S-trans, trans-farnesylthiosalicylic acid]
[1]
  Ras antagonist activity: potent and especially nontoxic Ras antagonist
[2]
  tumor growth and toxicity in animals: inhibition of tumor growth in animals with no adverse toxicity
